# In patent publication US20230149351A1, “TREATMENT OF SYMPTOMATIC VIRAL DISEASES” (SYNACT PHARMA ApS, priority 2020, published 2023):
# How the values were obtained:
# [1] = system: experimental inflammatory arthritis; conditions: oral; cited from earlier work
# MC3R = conditions: cited from earlier work
# MC1R [2] = molecular target: MC1R (Homo sapiens, UniProt Q01726); conditions: cited from earlier work
# [3] = system: Covid-19 induced pulmonary insufficiency; conditions: 100 mg once daily oral, add-on to standard therapy; 6 patients
# Description: The initial open label part of the study was conducted in 6 patients referred to hospital with Covid-19 induced pulmonary insufficiency, defined as a need for supplementary oxygen to maintain normal saturation.
# melanocytes = conditions: cited from earlier work
# [4] = system: mouse primary macrophages; conditions: cited from earlier work
# peritonitis = conditions: oral; cited from earlier work
# [5] = system: acute peritonitis induced by zymosan A; assay: Zymosan A induced acute peritonitis in mice (peritoneal cytokines by ELISA, neutrophil counts by flow cytometry); type: in vivo, mice (C57BL/6J); conditions: 1 mg/kg intraperitoneal 30 minutes before zymosan A, sacrifice twelve hours later, N=6
# Description: Acute peritonitis was induced by the injection of 1 mg zymosan A (Sigma-Aldrich) i.p. in 0.5 ml sterile PBS in mice. Twelve hours later the mice were sacrificed by CO2 exposure, and peritoneal cavities were washed with 4 ml ice-cold PBS containing 3 mM EDTA. Cells were stained with Turk’s solution (0.01% crystal violet in 3% acetic acid) and counted using a Neubauer hemocytometer or were stained with FITC-conjugated mAb for Ly-6G/Gr1, F4/80, and corresponding isotype controls (eBioscience, Hatfield, U.K.), and subjected to flow-cytometry analysis using a BD FACSCalibur platform (BD Biosciences, Oxford, U.K.).
# Levels of IL-1β and IL-6 in quick frozen samples were quantified according to the manufacturer’s instructions using ELISA Ready-SET-Go! (eBioscience).
# All animal studies were approved by and performed under the guidelines of the Ethical Committee for the Use of Animals, Barts and The London School of Medicine and Home Office regulations (Guidance on the Operation of Animals, Scientific Procedures Act, 1986). Male (7-8 wk old) C57BL/6J wild-type (WT) mice were purchased from Charles River Laboratories.
# Test Item A, 1 mg/kg or vehicle treatment were given intraperitoneal 30 minutes before induction of the acute peritonitis. N=6 for in both groups.
# macrophages = conditions: cited from earlier work
# MC1R [6] = conditions: cited from earlier work
# Chain of MC1R (Homo sapiens, UniProt Q01726) (Q01726 whole entry, species assumed): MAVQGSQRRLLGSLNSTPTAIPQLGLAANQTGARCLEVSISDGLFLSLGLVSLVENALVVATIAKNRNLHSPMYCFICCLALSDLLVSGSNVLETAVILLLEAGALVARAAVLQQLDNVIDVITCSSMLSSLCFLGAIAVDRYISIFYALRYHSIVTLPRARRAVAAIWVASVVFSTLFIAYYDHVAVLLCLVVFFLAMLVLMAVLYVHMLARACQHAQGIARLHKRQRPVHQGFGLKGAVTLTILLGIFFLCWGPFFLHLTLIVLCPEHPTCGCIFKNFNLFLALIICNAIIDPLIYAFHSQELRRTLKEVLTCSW
structure (smiles),measurement,setting,value
"NC(N)=N/N=C/C=C/c1cccn1-c1ccccc1[N+](=O)[O-] [AP1189, (E)-N-trans-{3-[1-(2-nitrophenyl)-1H-pyrrol-2-yl]-allylidene}-aminoguanidium acetate]",macroscopic and histological parameters of joint disruption,[1],significant reduction
same,ERK1/2 phosphorylation (MC3R),MC3R,cause ERK1/2 phosphorylation
same,canonical cAMP generation (MC3R),MC3R,does not induce canonical cAMP generation
same,type of agonism at MC3R,MC3R,biased agonist
same,binding to MC1R,MC1R [2],bind the MC1R
same,development of a need for more intensive pulmonary support,[3],none of them developed a need for more intensive pulmonary support
same,safety and tolerability,[3],safe and well tolerated
same,melanogenesis,melanocytes,no melanogenesis was induced
same,efferocytosis,[4],proefferocytic effect
same,anti-inflammatory action in peritonitis,peritonitis,elicits anti-inflammatory actions
same,resolution phase of peritonitis,peritonitis,accelerated the resolution phase
same,reduction of neutrophil accumulation compared to vehicle,[5],70%
same,reduction of levels of pro-inflammatory cytokine IL-1β compared to pretreatment with vehicle,[5]; p<0.05 vs vehicle,37%
same,reduction of levels of pro-inflammatory cytokine IL-6 compared to pretreatment with vehicle,[5]; p<0.05 vs vehicle,59%
same,cytokine release,macrophages,reduce cytokine release
same,ERK1/2 phosphorylation (MC1R),MC1R [6],cause ERK1/2 phosphorylation
same,canonical cAMP generation (MC1R),MC1R [6],does not induce canonical cAMP generation
same,type of agonism at MC1R,MC1R [6],biased agonist
